Data from PubChem BioAssay AID248 (DTP/NCI, 2004).
“And” between values parts separate entries of the source, which are not always exact repeats. Equal entries are not always repeated. Toxic doses and inconclusive results are not listed. Cut-off read from the data, not from the text of the source: active = T/C of 150% or more; inactive = T/C below 125%.

Test system: L1210 leukemia ip in BDF1 mice, survival T/C
Assay: NCI In Vivo Anticancer Drug Screen. Data for tumor model L1210 Leukemia (intraperitoneal) in B6D2F1 (BDF1) mice
Settings: endpoint: mean survival time, higher = longer survival
Procedure, shortened: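 In this screen, tumor-bearing mice given compound are compared to those given vehicle, and their survival values are reported as a treated-to-control quotient.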

[1] = dose: 100.0 mg/kg/injection, schedule: Q01DX001 (ip), vehicle: carboxymethylcellulose (CMC)
[2] = dose: 200.0 mg/kg/injection, schedule: Q01DX001 (ip), vehicle: carboxymethylcellulose (CMC)
[3] = dose: 400.0 mg/kg/injection, schedule: Q01DX001 (ip), vehicle: carboxymethylcellulose (CMC)
[4] = dose: 100.0 mg/kg/injection, schedule: Q04DX003 (ip), vehicle: saline with Tween-80
[5] = dose: 200.0 mg/kg/injection, schedule: Q04DX003 (ip), vehicle: saline with Tween-80
[6] = dose: 400.0 mg/kg/injection, schedule: Q04DX003 (ip), vehicle: saline with Tween-80

Measured: T/C

COc1ccc(CN2CCCN(Cc3ccc(OC)cc3OC)C2c2ccc(N(CCCl)CCCl)cc2C)c(OC)c1
inactive: dose: 50.0 mg/kg/injection, schedule: Q01DX001 (ip), vehicle: carboxymethylcellulose (CMC) 106 % of control | [1] 104 % of control | [2] 106 % of control | [3] 112 % of control

S=P(c1cccs1)(c1cccs1)c1cccs1
inactive: [4] 93 % of control | [5] 96 % of control | [6] 86 % of control

COc1c2c(c(OC)c3c1c(=O)c1ccccc1n3C)OCO2
inactive: [1] 102 % of control | [2] 98 % of control | dose: 300.0 mg/kg/injection, schedule: Q01DX001 (ip), vehicle: carboxymethylcellulose (CMC) 102 % of control | [3] 96 % of control | dose: 500.0 mg/kg/injection, schedule: Q01DX001 (ip), vehicle: carboxymethylcellulose (CMC) 93 % of control

CCCCCCCCCCCC(CCCC)CCCC
inactive: dose: 100.0 mg/kg/injection, schedule: Q01DX001 (ip), vehicle: saline with Tween-80 93 % of control | dose: 200.0 mg/kg/injection, schedule: Q01DX001 (ip), vehicle: saline with Tween-80 104 % of control | dose: 400.0 mg/kg/injection, schedule: Q01DX001 (ip), vehicle: saline with Tween-80 101 % of control

O=C1NC(c2ccco2)N2C(=O)NC(c3ccco3)N12 (stereo unspecified)
inactive: dose: 100.0 mg/kg/injection, schedule: Q01DX009 (ip), vehicle: gum acacia 90 % of control | dose: 100.0 mg/kg/injection, schedule: Q04DX003 (ip), vehicle: gum acacia 101 % of control | dose: 200.0 mg/kg/injection, schedule: Q01DX009 (ip), vehicle: gum acacia 88 % of control | dose: 200.0 mg/kg/injection, schedule: Q04DX003 (ip), vehicle: gum acacia 95 % of control | dose: 400.0 mg/kg/injection, schedule: Q01DX009 (ip), vehicle: gum acacia 88 % of control | dose: 400.0 mg/kg/injection, schedule: Q04DX003 (ip), vehicle: gum acacia 106 % of control

CCCCN(CCCC)CC(O)c1ccc2cc(Cl)cc(Cl)c2n1 (stereo unspecified)
inactive: dose: 6.25 mg/kg/injection, schedule: Q01DX009 (ip), vehicle: saline with Tween-80 94 % of control | dose: 6.25 mg/kg/injection, schedule: Q04DX003 (ip), vehicle: saline with Tween-80 98 % of control | dose: 12.5 mg/kg/injection, schedule: Q01DX009 (ip), vehicle: saline with Tween-80 98 % of control | dose: 12.5 mg/kg/injection, schedule: Q04DX003 (ip), vehicle: saline with Tween-80 95 % of control | dose: 25.0 mg/kg/injection, schedule: Q01DX009 (ip), vehicle: saline with Tween-80 98 % of control | dose: 25.0 mg/kg/injection, schedule: Q04DX003 (ip), vehicle: saline with Tween-80 95 % of control

CCOCc1ccc(O)c2ncccc12
inactive: dose: 264.0 mg/kg/injection, schedule: Q01DX001 (ip), vehicle: carboxymethylcellulose (CMC) 106 % of control | [3] 107 % of control

FC(F)(F)c1ccc(Cl)c(NC2=NCCS2)c1
inactive: dose: 100.0 mg/kg/injection, schedule: Q01DX001 (ip), vehicle: Klucel (hydroxypropylcellulose) (HPC) 114 % of control | dose: 100.0 mg/kg/injection, schedule: Q04DX003 (ip), vehicle: Klucel (hydroxypropylcellulose) (HPC) 97 % of control | dose: 200.0 mg/kg/injection, schedule: Q01DX001 (ip), vehicle: Klucel (hydroxypropylcellulose) (HPC) 103 % of control | dose: 200.0 mg/kg/injection, schedule: Q04DX003 (ip), vehicle: Klucel (hydroxypropylcellulose) (HPC) 98 % of control | dose: 400.0 mg/kg/injection, schedule: Q01DX001 (ip), vehicle: Klucel (hydroxypropylcellulose) (HPC) 97 % of control | dose: 400.0 mg/kg/injection, schedule: Q04DX003 (ip), vehicle: Klucel (hydroxypropylcellulose) (HPC) 88 % of control

O=C(c1ccccc1)c1c(-c2ccccc2)c(C(=O)c2ccccc2)c2ccccc2c1Cl
inactive: dose: 6.25 mg/kg/injection, schedule: Q01DX009 (ip), vehicle: water 96 % of control | dose: 12.5 mg/kg/injection, schedule: Q01DX009 (ip), vehicle: water 97 % of control | dose: 25.0 mg/kg/injection, schedule: Q01DX009 (ip), vehicle: water 94 % of control and 117 % of control | dose: 50.0 mg/kg/injection, schedule: Q01DX009 (ip), vehicle: water 94 % of control and 97 % of control | dose: 100.0 mg/kg/injection, schedule: Q01DX009 (ip), vehicle: water 101 % of control | dose: 200.0 mg/kg/injection, schedule: Q01DX009 (ip), vehicle: water 101 % of control | dose: 400.0 mg/kg/injection, schedule: Q01DX009 (ip), vehicle: water 97 % of control

CC(=O)NC1C(O)C(NC(C)=O)C(OC(C)=O)C(OC(C)=O)C1OC(C)=O (stereo unspecified)
inactive: [4] 95 % of control | [5] 101 % of control | [6] 94 % of control

COc1ccc(OC(=O)Nc2ccccc2C)cc1
inactive: dose: 50.0 mg/kg/injection, schedule: Q04DX002 (ip), vehicle: Klucel (hydroxypropylcellulose) (HPC) 104 % of control | dose: 100.0 mg/kg/injection, schedule: Q04DX002 (ip), vehicle: Klucel (hydroxypropylcellulose) (HPC) 100 % of control and 101 % of control | dose: 200.0 mg/kg/injection, schedule: Q04DX002 (ip), vehicle: Klucel (hydroxypropylcellulose) (HPC) 101 % of control | dose: 400.0 mg/kg/injection, schedule: Q04DX002 (ip), vehicle: Klucel (hydroxypropylcellulose) (HPC) 104 % of control and 111 % of control

O=C1CC2OCC=C3CN4CCC56c7ccccc7N1C5C2C3CC46 (stereo unspecified) (tested in a mixture with another compound)
inactive: dose: 0.12 mg/kg/injection, schedule: Q04DX003 (ip), vehicle: saline + Tween-80 + alkali 102 % of control | dose: 0.12 mg/kg/injection, schedule: Q04DX003 (ip), vehicle: saline 104 % of control | dose: 0.19 mg/kg/injection, schedule: Q04DX003 (ip), vehicle: alcohol 106 % of control | dose: 0.19 mg/kg/injection, schedule: Q04DX003 (ip), vehicle: saline + Tween-80 + alkali 100 % of control | dose: 0.19 mg/kg/injection, schedule: Q04DX003 (ip), vehicle: saline 104 % of control | dose: 0.25 mg/kg/injection, schedule: Q04DX003 (ip), vehicle: Klucel (hydroxypropylcellulose) (HPC) 101 % of control | dose: 0.28 mg/kg/injection, schedule: Q04DX003 (ip), vehicle: saline + Tween-80 + alkali 98 % of control | dose: 0.28 mg/kg/injection, schedule: Q04DX003 (ip), vehicle: saline 104 % of control | dose: 0.39 mg/kg/injection, schedule: Q01DX009 (ip), vehicle: saline 98 % of control and 95 % of control | dose: 0.39 mg/kg/injection, schedule: Q04DX003 (ip), vehicle: alcohol 103 % of control | dose: 0.5 mg/kg/injection, schedule: Q04DX003 (ip), vehicle: Klucel (hydroxypropylcellulose) (HPC) 93 % of control | dose: 0.75 mg/kg/injection, schedule: Q01DX009 (ip), vehicle: Klucel (hydroxypropylcellulose) (HPC) 92 % of control | dose: 0.78 mg/kg/injection, schedule: Q01DX009 (ip), vehicle: saline 101 % of control and 110 % of control | dose: 0.78 mg/kg/injection, schedule: Q04DX003 (ip), vehicle: alcohol 103 % of control | dose: 0.78 mg/kg/injection, schedule: Q04DX003 (ip), vehicle: saline + alcohol 102 % of control | dose: 0.78 mg/kg/injection, schedule: Q04DX003 (ip), vehicle: saline 100 % of control | dose: 1.0 mg/kg/injection, schedule: Q04DX003 (ip), vehicle: Klucel (hydroxypropylcellulose) (HPC) 101 % of control | dose: 1.5 mg/kg/injection, schedule: Q01DX009 (ip), vehicle: Klucel (hydroxypropylcellulose) (HPC) 97 % of control | dose: 1.5 mg/kg/injection, schedule: Q04DX003 (ip), vehicle: Klucel (hydroxypropylcellulose) (HPC) 100 % of control | dose: 1.56 mg/kg/injection, schedule: Q01DX009 (ip), vehicle: saline 90 % of control and 100 % of control | dose: 1.56 mg/kg/injection, schedule: Q04DX003 (ip), vehicle: alcohol 93 % of control | dose: 1.56 mg/kg/injection, schedule: Q04DX003 (ip), vehicle: saline + alcohol 93 % of control | dose: 1.56 mg/kg/injection, schedule: Q04DX003 (ip), vehicle: saline 93 % of control | dose: 6.0 mg/kg/injection, schedule: Q04DX003 (ip), vehicle: Klucel (hydroxypropylcellulose) (HPC) 110 % of control

CNC(=O)CO
inactive: dose: 100.0 mg/kg/injection, schedule: Q04DX003 (ip), vehicle: saline 98 % of control | dose: 200.0 mg/kg/injection, schedule: Q04DX003 (ip), vehicle: saline 103 % of control | dose: 400.0 mg/kg/injection, schedule: Q04DX003 (ip), vehicle: saline 92 % of control
